Results taken from US20130011345A1, “FLAVOR-ENHANCING AMIDE COMPOUNDS” (priority 2011, published 2013).

Assay: Sensory evaluation of the MSG-IMP umami composition combined with Formulas II and III by a trained sensory panel
Conditions: for Flavor Profile: trained sensory panel; for Effect on umami flavor of the MSG-IMP mixture (summary statement): combined with MSG-IMP mixture, all tested concentrations
From the text: The MSG-IMP mixture (0.01% MSG and 0.005% IMP), an umami composition, was combined with Formulas II and III at different concentrations and evaluated by a trained sensory panel.

[1] = Formula concentration 1 ppm in MSG-IMP mixture (0.01% MSG and 0.005% IMP)
[2] = Formula concentration 500 ppb in MSG-IMP mixture (0.01% MSG and 0.005% IMP)

| SMILES | Flavor Profile [1] | Flavor Profile (Formula concentration 5 ppm in MSG-IMP mixture (0.01% MSG and 0.005% IMP)) | Flavor Profile [2] | Effect on umami flavor of the MSG-IMP mixture (summary statement) |
| --- | --- | --- | --- | --- |
| C#CC#CCC/C=C/C(=O)NCC(C)CC (stereo not shown) [Formula II, (E)-N-(2-methylbutyl)nona-2-en-6,8-diynamide] | Increased umami flavor and less greasy | Strong umami enhancement | Increased mouth-feel, savory | enhanced the umami flavor |
| C#CC#CCC/C=C\C(=O)NCC(C)CC (stereo not shown) [Formula III, (Z)-N-(2-methylbutyl)nona-2-en-6,8-diynamide] | Increased mouthfullness, delocalized | – | Increased mouthfullness, delocalized | enhanced the umami flavor |
